Data as given in publication PMC6009956, “Design, synthesis and biological activity of N^4-phenylsubstituted-7H-pyrrolo[2,3-d]pyrimidin-4-amines as dual inhibitors of aurora kinase A and epidermal growth factor receptor kinase” (Journal of Enzyme Inhibition and Medicinal Chemistry, 2017).
Like-named read-outs stand apart in the source and are kept apart here.

Legend:
aurora A kinase (AURKA) = molecular target: T1, aurora A kinase (AURKA) (Homo sapiens, UniProt O14965); assay: ADP-Glo kinase assay, Aurora A; type: biochemical
T1 construct: purchased BPS Bioscience (assay run externally by the vendor)
T1 sequence (O14965 1-403): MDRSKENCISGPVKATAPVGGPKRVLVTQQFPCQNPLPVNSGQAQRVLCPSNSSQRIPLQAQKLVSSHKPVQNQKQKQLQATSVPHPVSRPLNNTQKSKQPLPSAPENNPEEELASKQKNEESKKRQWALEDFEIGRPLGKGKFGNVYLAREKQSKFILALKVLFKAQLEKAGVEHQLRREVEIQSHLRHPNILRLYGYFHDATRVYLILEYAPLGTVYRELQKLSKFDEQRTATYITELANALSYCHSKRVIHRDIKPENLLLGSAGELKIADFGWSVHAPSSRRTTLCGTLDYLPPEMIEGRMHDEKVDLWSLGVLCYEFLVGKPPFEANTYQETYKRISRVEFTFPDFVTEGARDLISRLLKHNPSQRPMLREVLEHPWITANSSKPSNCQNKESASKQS

EGFR = EGFR (Homo sapiens, UniProt P00533); assay: ADP-Glo kinase assay, EGFR; type: biochemical; set-up: purchased BPS Bioscience (assay run externally by the vendor)
Sequence of EGFR (P00533 25-1210): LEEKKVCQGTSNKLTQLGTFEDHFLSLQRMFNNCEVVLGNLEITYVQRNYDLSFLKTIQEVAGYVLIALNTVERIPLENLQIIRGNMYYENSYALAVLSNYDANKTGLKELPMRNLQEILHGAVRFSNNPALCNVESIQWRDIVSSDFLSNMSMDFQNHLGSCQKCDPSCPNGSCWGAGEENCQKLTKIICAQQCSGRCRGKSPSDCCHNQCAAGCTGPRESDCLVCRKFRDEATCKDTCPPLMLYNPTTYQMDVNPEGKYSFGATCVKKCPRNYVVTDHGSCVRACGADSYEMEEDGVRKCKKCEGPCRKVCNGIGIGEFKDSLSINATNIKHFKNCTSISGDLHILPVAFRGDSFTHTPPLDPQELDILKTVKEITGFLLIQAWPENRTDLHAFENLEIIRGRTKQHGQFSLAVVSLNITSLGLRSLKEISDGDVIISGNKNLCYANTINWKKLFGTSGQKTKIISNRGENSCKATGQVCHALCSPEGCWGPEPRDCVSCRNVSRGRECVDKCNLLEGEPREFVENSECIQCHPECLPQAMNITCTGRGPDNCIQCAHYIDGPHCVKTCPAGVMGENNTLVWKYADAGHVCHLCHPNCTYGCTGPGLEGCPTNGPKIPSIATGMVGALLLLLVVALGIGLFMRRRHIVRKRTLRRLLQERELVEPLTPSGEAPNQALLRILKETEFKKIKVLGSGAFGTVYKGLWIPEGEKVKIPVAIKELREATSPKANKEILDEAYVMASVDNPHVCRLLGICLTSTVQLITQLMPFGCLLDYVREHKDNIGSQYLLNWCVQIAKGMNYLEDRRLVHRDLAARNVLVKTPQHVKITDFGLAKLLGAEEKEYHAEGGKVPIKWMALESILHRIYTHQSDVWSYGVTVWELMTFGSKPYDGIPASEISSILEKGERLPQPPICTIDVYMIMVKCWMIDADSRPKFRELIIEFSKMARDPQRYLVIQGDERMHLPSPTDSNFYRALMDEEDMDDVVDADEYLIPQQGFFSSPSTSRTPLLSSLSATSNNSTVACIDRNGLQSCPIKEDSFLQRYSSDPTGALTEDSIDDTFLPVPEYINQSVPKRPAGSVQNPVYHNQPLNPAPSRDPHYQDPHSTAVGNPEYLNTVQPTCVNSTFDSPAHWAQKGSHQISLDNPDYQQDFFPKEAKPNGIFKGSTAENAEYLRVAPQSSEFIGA

With Clc1cccc(Nc2ncnc3[nH]ccc23)c1 [Compound 11, N^4-(3-chlorophenyl)-7H-pyrrolo[2,3-d]pyrimidin-4-amine] the IC50 (aurora A kinase (AURKA); 10 µM ATP, triplicate, read-out: AURKA IC50 ± SD) was 3130 ± 750 nM, the IC50 (aurora A kinase (AURKA); 10 µM ATP/0.2 mg/ml Kemptide, read-out: Aurora A IC50 (dose-response curve, supplement)) was 3100 nM and the “Aurora A % Activity Set1” value (aurora A kinase (AURKA); Log[nM] 0) was 99%. The “Aurora A % Activity Set2” value (aurora A kinase (AURKA); Log[nM] 0) was 100%, the “Aurora A % Activity Set3” value (aurora A kinase (AURKA); Log[nM] 0) was 90% and the “Aurora A % Activity Set1” value (aurora A kinase (AURKA); Log[nM] 1.0) was 109%. For the same compound, the “Aurora A % Activity Set2” value (aurora A kinase (AURKA); Log[nM] 1.0) was 95%, the “Aurora A % Activity Set3” value (aurora A kinase (AURKA); Log[nM] 1.0) was 101% and the “Aurora A % Activity Set1” value (aurora A kinase (AURKA); Log[nM] 1.5) was 102%. For the same compound, the “Aurora A % Activity Set2” value (aurora A kinase (AURKA); Log[nM] 1.5) was 108%, the “Aurora A % Activity Set3” value (aurora A kinase (AURKA); Log[nM] 1.5) was 96% and the “Aurora A % Activity Set1” value (aurora A kinase (AURKA); Log[nM] 2.0) was 94%. For the same compound, the “Aurora A % Activity Set2” value (aurora A kinase (AURKA); Log[nM] 2.0) was 104%, the “Aurora A % Activity Set3” value (aurora A kinase (AURKA); Log[nM] 2.0) was 107% and the “Aurora A % Activity Set1” value (aurora A kinase (AURKA); Log[nM] 2.5) was 95%. The “Aurora A % Activity Set2” value (aurora A kinase (AURKA); Log[nM] 2.5) was 98%, the “Aurora A % Activity Set3” value (aurora A kinase (AURKA); Log[nM] 2.5) was 99% and the “Aurora A % Activity Set1” value (aurora A kinase (AURKA); Log[nM] 3.0) was 80%. For the same compound, the “Aurora A % Activity Set2” value (aurora A kinase (AURKA); Log[nM] 3.0) was 85%, the “Aurora A % Activity Set3” value (aurora A kinase (AURKA); Log[nM] 3.0) was 84% and the “Aurora A % Activity Set1” value (aurora A kinase (AURKA); Log[nM] 3.5) was 42%. The “Aurora A % Activity Set2” value (aurora A kinase (AURKA); Log[nM] 3.5) was 48%, the “Aurora A % Activity Set3” value (aurora A kinase (AURKA); Log[nM] 3.5) was 49% and the “Aurora A % Activity Set1” value (aurora A kinase (AURKA); Log[nM] 4.0) was 19%. For the same compound, the “Aurora A % Activity Set2” value (aurora A kinase (AURKA); Log[nM] 4.0) was 22%, the “Aurora A % Activity Set3” value (aurora A kinase (AURKA); Log[nM] 4.0) was 19% and the “Aurora A % Activity Set1” value (aurora A kinase (AURKA); Log[nM] 4.5) was 8%. For the same compound, the “Aurora A % Activity Set2” value (aurora A kinase (AURKA); Log[nM] 4.5) was 9%, the “Aurora A % Activity Set3” value (aurora A kinase (AURKA); Log[nM] 4.5) was 8% and the “Aurora A % Activity Set1” value (aurora A kinase (AURKA); Log[nM] 5.0) was 5%. The “Aurora A % Activity Set2” value (aurora A kinase (AURKA); Log[nM] 5.0) was 4%, the “Aurora A % Activity Set3” value (aurora A kinase (AURKA); Log[nM] 5.0) was 3% and the “EGFR inhibition (in words)” value (EGFR) was “single-digit nanomolar EGFR inhibition”. For the same compound, the IC50 (EGFR; 10 µM ATP, triplicate, read-out: EGFR IC50 ± SD) was 6.63 ± 0.98 nM, the IC50 (EGFR; 10 µM ATP/0.2 mg/ml Poly-Glu-Tyr, read-out: EGFR IC50 (dose-response curve, supplement)) was 6.5 nM and the “EGFR % Activity Set1” value (EGFR; Log[nM] 0) was 66%. For the same compound, the “EGFR % Activity Set2” value (EGFR; Log[nM] 0) was 62%, the “EGFR % Activity Set3” value (EGFR; Log[nM] 0) was 63% and the “EGFR % Activity Set1” value (EGFR; Log[nM] 1.0) was 36%. For the same compound, the “EGFR % Activity Set2” value (EGFR; Log[nM] 1.0) was 34%, the “EGFR % Activity Set3” value (EGFR; Log[nM] 1.0) was 39% and the “EGFR % Activity Set1” value (EGFR; Log[nM] 1.5) was 17%. For the same compound, the “EGFR % Activity Set2” value (EGFR; Log[nM] 1.5) was 16%, the “EGFR % Activity Set3” value (EGFR; Log[nM] 1.5) was 20% and the “EGFR % Activity Set1” value (EGFR; Log[nM] 2.0) was 8%. The “EGFR % Activity Set2” value (EGFR; Log[nM] 2.0) was 7%, the “EGFR % Activity Set3” value (EGFR; Log[nM] 2.0) was 11% and the “EGFR % Activity Set1” value (EGFR; Log[nM] 2.5) was 6%. For the same compound, the “EGFR % Activity Set2” value (EGFR; Log[nM] 2.5) was 4%, the “EGFR % Activity Set3” value (EGFR; Log[nM] 2.5) was 6% and the “EGFR % Activity Set1” value (EGFR; Log[nM] 3.0) was 3%. The “EGFR % Activity Set2” value (EGFR; Log[nM] 3.0) was 1%, the “EGFR % Activity Set3” value (EGFR; Log[nM] 3.0) was 2% and the “EGFR % Activity Set1” value (EGFR; Log[nM] 3.5) was 2%. The “EGFR % Activity Set2” value (EGFR; Log[nM] 3.5) was 0%, the “EGFR % Activity Set3” value (EGFR; Log[nM] 3.5) was 0% and the “EGFR % Activity Set1” value (EGFR; Log[nM] 4.0) was 1%. For the same compound, the “EGFR % Activity Set2” value (EGFR; Log[nM] 4.0) was 0%, the “EGFR % Activity Set3” value (EGFR; Log[nM] 4.0) was 0% and the “EGFR % Activity Set1” value (EGFR; Log[nM] 4.5) was 0%. The “EGFR % Activity Set2” value (EGFR; Log[nM] 4.5) was 0%, the “EGFR % Activity Set3” value (EGFR; Log[nM] 4.5) was 0% and the “EGFR % Activity Set1” value (EGFR; Log[nM] 5.0) was 0%. The “EGFR % Activity Set2” value (EGFR; Log[nM] 5.0) was 0% and the “EGFR % Activity Set3” value (EGFR; Log[nM] 5.0) was 0%.
